Data from PMC5520057, “Modulation of nongenomic activation of PI3K signalling by tetramerization of N-terminally-cleaved RXRα” (Nature Communications, 2017).

Experiments:
RXRα-LBD [1] = molecular target: T1, RXRα-LBD (Homo sapiens, UniProt P19793); assay: Non-denaturing gel electrophoresis, oligomeric state of RXRα-LBD; type: biochemical; conditions: purified RXRα-LBD; 9-cis-RA (0.5 μM) and/or K-80003 (20 μM), 3 h at 4 °C
T1 construct: The human RXRα LBD (residues Thr223 to Thr462); made in house; host or cells: Escherichia coli BL21
T1 sequence (P19793 223-462): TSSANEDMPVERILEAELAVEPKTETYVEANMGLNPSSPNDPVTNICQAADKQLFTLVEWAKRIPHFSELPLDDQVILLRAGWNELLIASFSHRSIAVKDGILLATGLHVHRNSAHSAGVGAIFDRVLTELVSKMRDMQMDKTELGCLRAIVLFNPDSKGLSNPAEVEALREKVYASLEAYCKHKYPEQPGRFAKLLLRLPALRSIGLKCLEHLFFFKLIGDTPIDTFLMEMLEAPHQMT
Experimental: (§1) The human RXRα LBD (residues Thr223 to Thr462) cloned as an N-terminal histidine-tagged fusion protein in pET15b expression vector was expressed in Escherichia coli BL21 strain (Stratagene). After sonication, cell extract was incubated with the His60 Ni Superflow resin, and His-tagged RXRα-LBD-resin complexes were washed, eluted and concentrated to 5 mg ml^−1 for subsequent trails. For crystallization experiment, bovine thrombin (Sigma) was used to cleave the His tag from the purified His-tagged RXRα-LBD. The resulting His tag was removed on the Resource-Q column (GE) using 0.1–1 M NaCl gradient and the Tris-Cl pH 8 buffer. RXRα-LDB was further purified using gel filtration on a Superdex 200 2660 column (GE) pre-equilibrated with the 75 mM NaCl, 20 mM Tris-Cl buffer (pH 8).

RXRα-LBD [2] = assay: BS3 crosslinking, transfected RXRα-LBD; type: cell-based; conditions: HepG2 cells; 9-cis-RA (10^−7 M) or K-80003 (5 × 10^−6 M) for 6 h; BS3 1 mM; western blotting
Experimental: Cell lysates were then prepared and incubated with bis[sulfosuccinimidyl] suberate (BS3, Pierce) dissolved in dimethyl sulfoxide to a final concentration of 1 mM. The reactions were stopped with protein gel loading buffer. Samples were resolved by SDS/PAGE in 8% acrylamide gels and protein bands were visualized by western blotting.

[3] = tested on: p85α / tRXRα/R316E interaction; assay: coIP, p85α with tRXRα/R316E; type: cell-based; conditions: HEK293T cells; K-80003 (5 × 10^−6 M) for 6 h; coIP anti-HA
Experimental: For coIP assay[29], HEK293T cells grown in 10 cm dishes were transfected with various plasmids. Cells were lysed in 1 ml of lysis buffer (20 mM Tris (pH 7.5), 150 mM NaCl, 1% Triton X-100, 1 mM EDTA, 30 mM NaF, 2 mM sodium pyrophosphate) with a cocktail of proteinase inhibitors (Roche). Lysates were incubated with the appropriate antibody for 12 h at 4 °C and subsequently incubated with protein A-Sepharose beads for 1 h. The immunoprecipitates were collected and washed three times with lysis buffer. The protein–antibody complexes recovered on beads were subjected to immunoblotting using appropriate antibodies after separation by SDS-PAGE. Input represents 5% of cell lysates used for coIP assays.

MCF-7/tRXRα tumour = assay: MCF-7/tRXRα xenograft in nude mice, tumour growth; type: in vivo; conditions: K-80003 20 mg kg^−1 i.p. daily for 12 days, n=6 in each group
Experimental: (§2) For nude mice xenograft study, Myc-RXRα and Myc-tRXRα cloned into pcdna3.0 vector were stably transfected into MCF-7 cells, and the resulting stable clones and control clone (2 × 10^6 cells in 100 μl) were injected subcutaneously into nude mice (BALB/c, SPF grade, 16–18 g, 4–5-week old). For drug treatment, mice were intraperitoneally injected (i.p.) daily with K-80003 (20 mg kg^−1) diluted in Tween-80 or vehicle (tween-80). Body weight and tumour size were measured every 2 days. Mice were killed after 12-day drug treatment and the tumours removed for various assessments. For MMTV-PyMT transgenic mouse study, 4-week old female mice of a transgenic mouse on the FVB/N genetic background expressing the PyMT oncogene under the control of MMTV LTR promoter[40] were fed with diet containing with or without K-80003 (100 mg kg^−1) for 4 weeks. Estimation of tumour appearance was performed by palpation once every day. Tumour tissues of left thoracic mammary glands were excised after the treatment. Portion of tissues was used to prepare extracts for western blotting, while the rest was fixed in 4% phosphate-buffered paraformaldehyde, and used for immunohistochemical staining using anti-Ki67 antibody and immunostaining using Δ197 anti-RXRα antibody. All experimentations and animal usage were performed and approved by the Animal Care and Use Committee of Xiamen University.

MMTV-PyMT mammary tumour = assay: MMTV-PyMT tumours, Ki-67 immunostaining; type: in vivo, MMTV-PyMT mice; conditions: diet with K-80003 (100 mg kg^−1) for 4 weeks; Ki-67 positive cells scored from 500 cells
Experimental: as §2, with “Portion of tissues was used to prepare extracts for western blotting, while the rest was fixed in 4% phosphate-buffered paraformaldehyde, and used for immunohistochemical staining using anti-Ki67 antibody and immunostaining using Δ197 anti-RXRα antibody. All experimentations and animal usage were performed and approved by the Animal Care and Use Committee of Xiamen University.” left out
(a) Expression of tRXRα in MMTV-PyMT mammary tumors analyzed by Western blotting using ΔN197 anti-RXRα antibody.
(b) Tumor sections from MMTV-PyMT mice fed with vehicle or K-80003 were immunostained with anti-Ki-67 antibody. Ki-67 positive cells were scored from 500 cells. […]

RXRα-LBD [4] = molecular target: T1, RXRα-LBD; assay: Crystal structure of RXRα-LBD complex; type: binding; conditions: crystal structure at 2.6 Å, PDB 5TBP
Experimental: as §1
Crystallization conditions were initially determined using the sitting-drop vapor-diffusion method and the crystallization screens Index and PEG-Ion solutions from Hampton Research. Final crystals were obtained by cocrystallizing the protein and the ligand. The protein-ligand complex contained 0.35 mM of RXRα-LBD, 0.5–0.7 mM of a ligand, 1% DMSO, 100 mM NaCl and 20 mM Tris-Cl buffer (pH 7.6). 0.2 μl of the protein-ligand complex was mixed with 0.2 μl of the well solution (20% […] and 0.2 M Na Acetate) and incubated at 20 °C. Crystals appeared in 5–10 days and grew into 0.2 × 0.1 × 0.1 mm prisms. The crystals were flash-cooled in mother liquor containing 1.5 mM of K-80003 and 20% glycerol as a cryoprotectant. Diffraction data was collected from the cryo-cooled crystal (100 K) on an in-house diffractometer (Rigaku X-ray generator with a rotating anode, VariMax optic and R-AXIS HTC detector). Data was processed using the programme iMOSFLM, part of the CCP4 suite. The b-factor of the data set according to the Wilson plot was 60 Å^2.
The crystal structures were determined using the molecular replacement program Phaser[76] with pdb entry 4N8R as an initial model. Coot[77] and the program suite Phenix[78] were used for the model rebuilding and refinement. […]

p85α / tRXRα interaction = tested on: p85α / tRXRα interaction; design: method as in PMID 20541701; conditions: cited from earlier work
tRXRα = tested on: tRXRα; design: method as in PMID 20541701; conditions: cited from earlier work

CC1=C(CC(=O)O)c2cc(F)ccc2/C1=C\c1ccc(C(C)C)cc1 [K-80003]
effect on RXRα-LBD oligomeric state (RXRα-LBD [1]): induced an accumulation of tetramers | crosslinked RXRα-LBD species (RXRα-LBD [2]): crosslinked species on SDS-PAGE gels of 25, 50 and 100 kDa, corresponding to monomer, dimer and tetramer of RXRα-LBD | modulation of tRXRα/R316E interaction with p85α [3]: failed to modulate the interaction of both mutants with p85α | effect on tRXRα-promoted growth of MCF-7 tumour (MCF-7/tRXRα tumour): suppressed | tumour cell proliferation (Ki-67) (MMTV-PyMT mammary tumour): inhibition of tumour cell proliferation | binding mode (RXRα-LBD [4]): ‘3-pronged’ binding mode | molecules bound per tetramer (RXRα-LBD [4]): six molecules of K-80003-bound per tetramer | molecules bound per interfacial cavity (RXRα-LBD [4]; A1/B2 or A2/B1 cavity): three molecules per A1/B2 or A2/B1 interfacial cavity | inhibition of tRXRα interaction with p85α (p85α / tRXRα interaction): inhibits its interaction with p85α | binding to tRXRα (tRXRα): binds to tRXRα
